Blank lines part the entries; values can stand above or below the compound they belong to. The source made the active and inactive calls. The rule behind the calls is not given here.
Experiments:
U-937 [1] = assay: Cytotoxicity against human U937 cells after 48 hrs by trypan blue assay; format: functional; settings: U-937, 48 h
U-937 [2] = assay: Induction of cell differentiation in human U937 cells assessed as increase of CD11b and CD14 expression at 500 uM after 72 hrs by FACS flow cytometer analysis; format: functional, cell-based
U-937 [3] = assay: Antiproliferative activity against human U937 cells assessed as incorporation of [3H]-methyl-thymidine after 12 hrs by scintillation counting; format: functional, cell-based
U-937 [4] = assay: Induction of apoptosis in human U937 cells assessed as activation of caspase-3 at 500 uM after 24 hrs by colorimetric assay; format: functional, cell-based
U-937 [5] = assay: Inhibition of clonogenic activity in human U937 cells assessed as reduction of colony formation in soft agar at 100 to 250 uM after 24 hrs using crystal violet staining; format: functional, cell-based
[6] = Induction of free radicals production in carbonate buffer at pH 9 by electron spin resonance analysis; format: physicochemical
U-937 [7] = assay: Induction of apoptosis in human U937 cells assessed as reduction of normal cells at 1000 uM after 24 hrs by Annexin V-FITC double staining; format: functional, cell-based
U-937 [8] = assay: Induction of apoptosis in human U937 cells assessed as activation of caspase-3 at 1000 uM after 48 hrs by colorimetric assay; format: functional, cell-based
[9] = Induction of free radicals production in RPMI 1640 medium at pH 7.4 by electron spin resonance analysis; format: physicochemical
[10] = Pro-oxidant activity in 0.1 M potassium phosphate buffer at pH 7.4 assessed as increase of oxidation potential by cyclic voltammetry analysis; format: physicochemical
U-937 [11] = assay: Cell cycle arrest in human U937 cells assessed as accumulation at sub-G0/G1 phase at 250 uM after 24 hrs using propidium iodide staining by FACS analysis; format: functional, cell-based
U-937 [12] = assay: Induction of apoptosis in human U937 cells assessed as reduction of normal cells at 250 uM after 24 hrs by Annexin V-FITC double staining; format: functional, cell-based
U-937 [13] = assay: Induction of apoptosis in human U937 cells assessed as activation of caspase-3 at 250 uM after 24 hrs by colorimetric assay; format: functional, cell-based
U-937 [14] = assay: Induction of apoptosis in human U937 cells assessed as PARP cleavage at 250 uM after 24 hrs by Western blot analysis; format: functional, cell-based
U-937 [15] = assay: Induction of apoptosis in human U937 cells assessed as active 11 kDa fragment of caspase-3 at 250 uM after 24 hrs by Western blot analysis; format: functional, cell-based
Jurkat [16] = assay: Cytotoxicity against human Jurkat at 250 uM after 48 hrs by trypan blue assay; format: functional, cell-based
Jurkat [17] = assay: Induction of apoptosis in human Jurkat cells at 500 uM after 48 hrs by Annexin V-FITC double staining; format: functional, cell-based
U-937 [18] = assay: Induction of DNA damage in human U937 cells; format: functional, cell-based
Jurkat [19] = assay: Induction of apoptosis in human Jurkat cells assessed as activation of caspase-3 at 500 uM after 24 hrs by colorimetric assay; format: functional, cell-based
U-937 [20] = assay: Induction of cell differentiation in human U937 cells assessed as increase of CD11b and CD14 expression at 250 to 500 uM after 72 hrs by FACS flow cytometer analysis; format: functional, cell-based
Jurkat [21] = assay: Induction of apoptosis in human Jurkat cells assessed as activation of caspase-3-mediated PARP cleavage at 500 uM after 24 hrs by colorimetric assay; format: functional, cell-based
U-937 [22] = assay: Induction of cell differentiation in human U937 cells assessed as increase of CD88 expression at 250 to 500 uM after 72 hrs by FACS flow cytometer analysis; format: functional, cell-based
U-937 [23] = assay: Induction of apoptosis in human U937 cells assessed as phosphatidylserine expression in plasma membrane at 1000 uM after 24 hrs by Annexin V-FITC double staining; format: functional, cell-based
U-937 [24] = assay: Pro-oxidant activity in human U937 cells assessed as DCF-DA oxidation at 10 to 250 uM after 48 hrs by fluorescence assay; format: functional, cell-based
U-937 [25] = assay: Induction of cell differentiation in human U937 cells assessed as increase of rhC5a-induced response at 250 to 500 uM after 72 hrs by FACS flow cytometer analysis; format: functional, cell-based

SMILES: O=C(O)/C=C/c1ccc(O)c(O)c1 [CAFFEIC ACID]
colony formation inhibition (active/not active) (U-937 [5]): inactive
CC50 (U-937 [1]): > 2000 µM
Activity [6]: Active
Activity (U-937 [7]): inactive
IC50 (U-937 [3]): 316 µM
Activity (U-937 [8]): inactive
Activity [9]: Active

SMILES: COc1cc2ccc(=O)oc2cc1OC [SCOPARONE]
CC50 (U-937 [1]): 1290 µM
Activity [10]: Not Active
IC50 (U-937 [3]): 590 µM
Activity (U-937 [4]): inactive

SMILES: Cc1cc(C)oc(=O)c1
CC50 (U-937 [1]): > 2000 µM
Activity [10]: Not Active
Activity (U-937 [2]): Active
IC50 (U-937 [3]): > 2000 µM

SMILES: O=C(O)/C=C/c1ccc(O)cc1 [COUMARIC ACID]
CC50 (U-937 [1]): > 2000 µM
Activity (U-937 [2]): inactive
IC50 (U-937 [3]): > 2000 µM

SMILES: O=C(O)CCc1ccc(O)c(O)c1 [DIHYDROCAFFEIC ACID]
Activity (Jurkat [16]): Active
Activity (Jurkat [17]): inactive
Activity (U-937 [18]): inactive
colony formation inhibition (active/not active) (U-937 [5]): inactive
CC50 (U-937 [1]): > 2000 µM
Activity [6]: Active
Activity (Jurkat [19]): Active
Activity [10]: Active
Activity (U-937 [20]): Active
Activity (Jurkat [21]): Active
Activity (U-937 [7]): inactive
Activity (U-937 [22]): Active
IC50 (U-937 [3]): 213 µM
Activity (U-937 [23]): Active
Activity (U-937 [8]): inactive
Activity [9]: Active
Activity (U-937 [24]): inactive
Activity (U-937 [25]): Active

SMILES: Cc1cc(=O)oc2ccc(O)cc12
CC50 (U-937 [1]): > 2000 µM
Activity (U-937 [2]): Active
Activity (U-937 [4]): inactive

SMILES: COc1cc2ccc(=O)oc2c(O)c1O [FRAXETIN]
Activity (U-937 [11]): Active
Activity (U-937 [12]): Active
colony formation inhibition (active/not active) (U-937 [5]): Active
CC50 (U-937 [1]): 70.2 µM
Activity [6]: Active
Activity (U-937 [13]): Active
IC50 (U-937 [3]): 143 µM
Activity [9]: Active
Activity (U-937 [14]): Active
Activity (U-937 [15]): Active

Continued, in another order:

IC50 (U-937 [3]): 976 µM
SMILES: COc1cc2ccc(=O)oc2cc1O [SCOPOLETIN]
CC50 (U-937 [1]): > 2000 µM
Activity (U-937 [2]): inactive
Activity (U-937 [4]): inactive

IC50 (U-937 [3]): 259 µM
SMILES: Cc1cc(O)nc2cc(O)ccc12
CC50 (U-937 [1]): > 1000 µM
Activity (U-937 [2]): Active
Activity (U-937 [4]): inactive

IC50 (U-937 [3]): > 2000 µM
SMILES: Cc1cc(=O)oc2cc(O)cc(O)c12 [5,7-DIHYDROXY-4-METHYLCOUMARIN]
CC50 (U-937 [1]): > 2000 µM
Activity (U-937 [2]): Active
Activity (U-937 [4]): inactive

Activity [6]: Active
IC50 (U-937 [3]): 143 µM
Activity [9]: Active
SMILES: O=c1ccc2cc(O)c(O)cc2o1 [ESCULETIN]
Activity (U-937 [11]): Active
Activity (U-937 [12]): Active
colony formation inhibition (active/not active) (U-937 [5]): Active
CC50 (U-937 [1]): 108 µM
Activity (U-937 [13]): Active
Activity (U-937 [14]): Active
Activity (U-937 [15]): Active
